Experimental data reported in US20230150978A1, “QUINAZOLINONE DERIVATIVES AND USES THEREOF FOR TREATING A CANCER” (ENYO PHARMA, priority 2020, published 2023).
pEC50: −log10 of the molar value.

Tests used:
[1] = test system: Calreticulin; assay: Calreticulin release (ER to plasma membrane translocation) screen, Nano-Glo HiBiT extracellular detection; assay type: cell-based; conditions: Homo sapiens, MDA-MB-231, MDA-MB-231 cells stably expressing Calreticulin-HiBiT; extracellular luminescence; read-out: CalR EC50
Experimental: (§1) Construction of pBiT3.1-Calreticulin Plasmid Calreticulin derived from pCMV6-AC plasmid (ref. SC320287, Origene) was amplified by PCR using the following set of primers: Seq ID No 3: forward, 5′-[…]-3′; Seq ID No 4: reverse, 5′-[…]-3′. The PCR fragment was subsequently digested by EcoRI and XhoI (R3101S and R0146S respectively, New England Biolabs) and inserted between the EcoRI and XhoI sites in the plasmid pBiT3.1-C(ref. N237A, Promega). The resulting plasmid (pBiT3.1-Calreticulin) was grown in NEB10-beta competent E. coli (ref. C3019I, New England Biolabs) and purified using the NucleoBond Xtra Midi Kit (ref. 740410, Macherey-Nagel).
Construction of Calreticulin Reporter Cell Line
(§2) pBiT3.1-Calreticulin was transfected in MDA-MB-231 cells (ref. ATCC HTB-2) using Lipofectamine 2000 reagent (ref. 11668, Invitrogen). Transfected cells were selected for blasticidin resistance (15 μg/ml, ref. Al 113903 Gibco) in medium containing DMEM 1× (ref. 1995065, Gibco) with 1% penicillin and streptomycin, and 10% fetal bovine serum.
Screen for Calreticulin-ER to Plasma Membrane Translocating Drugs
(§3) MDA-MB-231 cells stably expressing Calreticulin-HiBiT (10^4 cells/well) were seeded into white 96-well plates (ref.3917, Corning) and allowed to recover for 24h. […] Mitoxantrone dihydrochloride (ref. M6545, Sigma-Aldrich) was used as a positive control. Extracellular translocation of Calreticulin was measured using the Nano-Glo HiBiT extracellular detection system (ref. N2422, Promega). Nano-Glo HiBiT Extracellular Reagent was prepared in advance, added to the well and incubated 10 min.
Luminescence of the extracellular Calreticulin-HiBiT was quantified using the Spark 20M spectrofluorimeter (TECAN).

[2] = test system: HMGB1; assay: HMGB1 release screen, Nano-Glo HiBiT extracellular detection; assay type: cell-based; conditions: Homo sapiens, MDA-MB-231, MDA-MB-231 cells stably expressing HMGB1-HiBiT; extracellular luminescence
Experimental: Construction of pBiT3.1-HMGB1 Plasmid
as §1, with “HMGB1” for “Construction of pBiT3.1-Calreticulin Plasmid Calreticulin”, “pCMV6-AC-GFP” for “pCMV6-AC”, “RG205918,” for “SC320287,”, “1:” for “3:”, “2:” for “4:”, “(pBiT3.1-HMGB1)” for “(pBiT3.1-Calreticulin)”
Construction of HMGB1 Reporter Cell Line
as §2, with “pBiT3.1-HMGB1” for “pBiT3.1-Calreticulin”
Screen for HMGB1-Releasing Drugs
as §3, with “HMGB1-HiBiT” for “Calreticulin-HiBiT”, “HMGB1” for “Calreticulin”, “min. Luminescence of the extracellular HMGB1-HiBiT was quantified using the Spark 20M spectrofluorimeter (TECAN)” for “min.”

pEC50 [1]	pEC50 [2]	melting point [°C]	Structure (SMILES)
6.47	6.37	191 to 206	COc1ccc2nc(CN3CCCCc4ccccc43)[nH]c(=O)c2c1 [Ex. 22, 6-methoxy-2-(2,3,4,5-tetrahydro-1-benzazepin-1-ylmethyl)-3H-quinazolin-4-one]
6.72	6.58	192 to 213	COc1ccc2nc(CN3CC(C)c4ccccc43)[nH]c(=O)c2c1 (centres unmarked) [Ex. #3, 6-methoxy-2-[(3-methylindolin-1-yl)methyl]-3H-quinazolin-4-one]
6.60	6.66	192 to 208	COc1ccc2nc(CN3CC(C(C)C)c4ccccc43)[nH]c(=O)c2c1 (centres unmarked) [Ex. #6, 2-[(3-isopropylindolin-1-yl)methyl]-6-methoxy-3H-quinazolin-4-one]
6.49	6.37	229 to 235	COc1ccc2nc(CN3CCc4ccc(F)cc43)[nH]c(=O)c2c1 [Ex. #7, 2-[(6-fluoroindolin-1-yl)methyl]-6-methoxy-3H-quinazolin-4-one]
5.25	5.08	208 to 227	COc1ccc2nc(CN3CCc4cccc(F)c43)[nH]c(=O)c2c1 [Ex. #8, 2-[(7-fluoroindolin-1-yl)methyl]-6-methoxy-3H-quinazolin-4-one]
4.89	4.93	190 to 209	COc1ccc2nc(CN3CC(CO)c4ccccc43)[nH]c(=O)c2c1 (centres unmarked) [Ex. #9, 2-[[3-(hydroxymethyl)indolin-1-yl]methyl]-6-methoxy-3H-quinazolin-4-one]
6.99	6.96	222 to 236	COc1ccc2nc(CN3CCCc4cccc(F)c43)[nH]c(=O)c2c1 [Ex. #11, 2-[(8-fluoro-3,4-dihydro-2H-quinolin-1-yl)methyl]-6-methoxy-3H-quinazolin-4-one]
5.94	6.12	169 to 183	COc1ccc2nc(CN3CCCc4cccc(OC)c43)[nH]c(=O)c2c1 [Ex. #13, 6-methoxy-2-[(8-methoxy-3,4-dihydro-2H-quinolin-1-yl)methyl]-3H-quinazolin-4-one]
6.31	5.58	197 to 218	COc1ccc2nc(CN3CCc4c(C#N)cccc4C3)[nH]c(=O)c2c1 [Ex. #16, 2-[(6-methoxy-4-oxo-3H-quinazolin-2-yl)methyl]-3,4-dihydro-1H-isoquinoline-5-carbonitrile]
6.27	5.22	204 to 218	COc1ccc2nc(CN3CCc4c(cccc4OC)C3)[nH]c(=O)c2c1 [Ex. #17, 6-methoxy-2-[(5-methoxy-3,4-dihydro-1H-isoquinolin-2-yl)methyl]-3H-quinazolin-4-one]
5.94	5.50	200 to 223	CC1CN(Cc2nc3ccc(Cl)cc3c(=O)[nH]2)c2ccccc21 (centres unmarked) [Ex. #37, 6-chloro-2-[(3-methylindolin-1-yl)methyl]-3H-quinazolin-4-one]
6.03	5.90	163 to 176	CC1(C)CN(Cc2nc3ccc(Cl)cc3c(=O)[nH]2)c2ccccc21 [Ex. #40, 6-chloro-2-[(3,3-dimethylindolin-1-yl)methyl]-3H-quinazolin-4-one]
5.75	5.51	183 to 194	COc1cccc2c1N(Cc1nc3ccc(Cl)cc3c(=O)[nH]1)CCC2 [Ex. #54, 6-chloro-2-[(8-methoxy-3,4-dihydro-2H-quinolin-1-yl)methyl]-3H-quinazolin-4-one]
6.28	5.32	205 to 212	COc1cccc2c1CCN(Cc1nc3ccc(Cl)cc3c(=O)[nH]1)C2 [Ex. #58, 6-chloro-2-[(5-methoxy-3,4-dihydro-1H-isoquinolin-2-yl)methyl]-3H-quinazolin-4-one]
6.82	6.82	194 to 209	COc1cc2c(=O)[nH]c(CN3CC(C)(C)c4ccccc43)nc2cc1F [Ex. #77, 2-[(3,3-dimethylindolin-1-yl)methyl]-7-fluoro-6-methoxy-3H-quinazolin-4-one]
5.61	5.49	215 to 230	COc1cc2c(=O)[nH]c(CN3CCc4ccccc43)nc2cn1 [Ex. #78, 2-(indolin-1-ylmethyl)-6-methoxy-3H-pyrido[3,4-d]pyrimidin-4-one]
6.10	6.10	145 to 167	COc1cc2c(=O)[nH]c(CN3CC(C)(C)c4ccccc43)nc2cn1 [Ex. #79, 2-[(3,3-dimethylindolin-1-yl)methyl]-6-methoxy-3H-pyrido[3,4-d]pyrimidin-4-one]
6.66	6.65	200 to 223	CN(C)c1cc2c(=O)[nH]c(CN3CCc4ccccc43)nc2cc1F [Ex. #80, 6-(dimethylamino)-7-fluoro-2-(indolin-1-ylmethyl)-3H-quinazolin-4-one]
7.10	6.39	168 to 185	CC(C)c1ccc2nc(CN3CCc4ccccc43)[nH]c(=O)c2c1 [Ex. #81, 2-(indolin-1-ylmethyl)-6-isopropyl-3H-quinazolin-4-one]
5.12	5.33	184 to 196	O=c1[nH]c(CN2CCc3ccccc32)nc2ccc(F)cc12 [Ex. #88, 6-fluoro-2-(indolin-1-ylmethyl)-3H-quinazolin-4-one]
5.26	5.06	167 to 181	CC(C)(C)OC(=O)NCCCCOc1ccc2nc(CN3CCc4ccccc43)[nH]c(=O)c2c1 [Ex. #90, tert-butyl N-[4-[[2-(indolin-1-ylmethyl)-4-oxo-3H-quinazolin-6-yl]oxy]butyl]carbamate]
5.09		222 to 232	COc1ccc2nc(CN3CCc4c(F)cccc43)[nH]c(=O)c2c1 [Ex. #126, 2-[(4-fluoroindolin-1-yl)methyl]-6-methoxy-3H-quinazolin-4-one]
4.98	4.88		CN1CCN(Cc2nc3ccc(Cl)cc3c(=O)[nH]2)c2ccccc21 [Ex. #128, 6-chloro-2-[(4-methyl-2,3-dihydroquinoxalin-1-yl)methyl]-3H-quinazolin-4-one]
4.97	4.88		COc1ccc2nc(CN3CC(CCO)c4ccccc43)[nH]c(=O)c2c1 (centres unmarked) [Ex. #129, 2-[[3-(2-hydroxyethyl)indolin-1-yl]methyl]-6-methoxy-3H-quinazolin-4-one]
4.92	4.84		COc1ccc2nc(CN3CC(CCN)c4ccccc43)[nH]c(=O)c2c1 (centres unmarked) [Ex. #131, 2-[1-[(6-methoxy-4-oxo-3H-quinazolin-2-yl)methyl]indolin-3-yl]ethylammonium chloride]
4.98	4.84		COC1CCN(c2ccc3nc(CN4CCc5ccccc54)[nH]c(=O)c3c2)CC1 [Ex. #132, 2-(indolin-1-ylmethyl)-6-(4-methoxy-1-piperidyl)-3H-quinazolin-4-one]
4.92	4.84		O=c1[nH]c(CN2CCc3ccccc32)nc2cc(F)ccc12 [Ex. #138, 7-fluoro-2-(indolin-1-ylmethyl)-3H-quinazolin-4-one]
5.01	4.84		COc1ccc2c(c1)CCN2Cc1nc2ccc(Cl)cc2c(=O)[nH]1 [Ex. #144, 6-chloro-2-((5-methoxyindolin-1-yl)methyl)quinazolin-4(3H)-one]
